Holding throughout (assay type): cell-based, mouse
The subject of assay [1] is 3T3-L1 adipocytes. The experiment in a line: Cell proliferation / DNA synthesis in cultured adipocytes (CyQUANT). Here is the method: (§1) 3T3-L1 preadipocytes were incubated at a density of 8000 cells/cm^2 (10 cm^2 dish) and grown in Dulbecco's modified Eagle's medium (DMEM) containing 10% FBS and antibiotics (adipocyte medium) at 37° C. in 5% CO2 in air. Confluent preadipocytes were induced to differentiate with a standard differentiation medium consisting of DMEM-F10 (1:1, vol/vol) medium supplemented with 1% FBS, 1 μM dexamethasone, IBMX (0.5 mM) and antibiotics (1% Penicillin-Streptomycin). Preadipocytes were maintained in this differentiation medium for 3 days and subsequently cultured in adipocyte medium. Cultures were re-fed every 2-3 days to allow 90% of cells to reach full differentiation before conducting chemical treatment. Chemicals were freshly diluted in adipocyte medium before treatment. Cells were washed with fresh adipocyte medium, re-fed with medium containing the different treatments, and incubated at 37° C. in 5% CO2 in air before analysis. Cell viability was measured via trypan blue exclusion. Cells were plated in DMEM with different treatment in duplicate in 96-well plates. After 48 h, a CyQUANT Cell Proliferation Kit (Molecular Probes, Eugene, Oreg.) was used following the manufacturer's protocol. a microplate fluorometer (Packard Instrument Company, Inc., Downers Grove, Ill.) was used to measure CyQUANT fluorescence. Cell viability was determined by Trypan blue exclusion examination.

Assay [2] relates to 3T3-L1 adipocytes. Briefly: Intracellular ROS generation in cultured adipocytes (H2-DCFDA). As to conditions: α-tocopherol 1 μmol/L added, all groups. Here is the method: as §1, with “exclusion. […]” for “exclusion.”, “loaded” for “plated in DMEM”, “H2-DCFDA (2 μmol/L) 30 minute before the end of the incubation period (48 h).” for “different treatment in duplicate in 96-well plates.”, “washing twice with PBS, cells were scraped and disrupted by sonication on ice (20 s). Fluorescence (emission 543 nm or 527 nm) and DNA content were then measured as described previously. The intensity of fluorescence” for “48 h, a CyQUANT Cell Proliferation Kit (Molecular Probes, Eugene, Oreg.)”, “expressed as arbitrary units per ng DNA.” for “used following the manufacturer's protocol. a microplate fluorometer (Packard Instrument Company, Inc., Downers Grove, Ill.) was used to measure CyQUANT fluorescence. Cell viability was determined by Trypan blue exclusion examination.”

In assay [3] the test system is 3T3-L1 adipocytes. Briefly: Intracellular Ca2+ in cultured adipocytes (fura-2). Here is the method: 3T3-L1 preadipocytes were incubated at a density of 8000 cells/cm^2 (10 cm^2 dish) and grown in Dulbecco's modified Eagle's medium (DMEM) containing 10% FBS and antibiotics (adipocyte medium) at 37° C. in 5% CO2 in air. Confluent preadipocytes were induced to differentiate with a standard differentiation medium consisting of DMEM-F10 (1:1, vol/vol) medium supplemented with 1% FBS, 1 μM dexamethasone, IBMX (0.5 mM) and antibiotics (1% Penicillin-Streptomycin). Preadipocytes were maintained in this differentiation medium for 3 days and subsequently cultured in adipocyte medium. Cultures were re-fed every 2-3 days to allow 90% of cells to reach full differentiation before conducting chemical treatment. Chemicals were freshly diluted in adipocyte medium before treatment. Cells were washed with fresh adipocyte medium, re-fed with medium containing the different treatments, and incubated at 37° C. in 5% CO2 in air before analysis. Cell viability was measured via trypan blue exclusion. [Ca^2+]i in adipocytes was measured using a fura-2 dual-wavelength fluorescence imaging system. Cells were plated in 35-mm dishes […]). […] Cells were loaded with fura-2 acetoxymethyl ester (fura-2 AM) (10 μmol/L) in the same buffer for 2 h at 37° C. in a dark incubator with 5% CO2. To remove extracellular dye, cells were rinsed with HBSS three times and then post-incubated at room temperature for an additional 1 h for complete hydrolysis of cytoplasmic fura-2 AM. The dishes with dye-loaded cells were mounted on the stage of Nikon TMS-F fluorescence inverted microscope with a Cohu model 4915 charge-coupled device (CCD) camera. Fluorescent images were captured alternatively at excitation wavelengths of 340 and 380 nm with an emission wavelength of 520 nm. After establishment of a stable baseline, the responses to 1α, 25-(OH)2-D3 was determined. [Ca^2+]i was calculated using a ratio equation as described previously. Each analysis evaluated responses of 5 representative whole cells. Images were analyzed with […]2 version 4.62 imaging software (Intracellular Imaging, Cincinnati, Ohio). […]

In the next assay the test system is adiponectin. Briefly: Adiponectin expression in 3T3-L1 adipocytes. As to conditions: 48 h. On the procedure: (§2) 3T3-L1 pre-adipocytes were incubated at a density of 8000 cells/cm^2 (10 cm^2 dish) and grown in Dulbecco's modified Eagle's medium (DMEM) containing 10% FBS and antibiotics (adipocyte medium) at 37° C. in 5% CO2 in air. Confluent pre-adipocytes were induced to differentiate with a standard differentiation medium consisting of DMEM-F10 (1:1, vol/vol) medium supplemented with 1% fetal bovine serum (FBS), 1 μM dexamethasone, isobutylmethylxanthine (IBMX) (0.5 mM) and antibiotics (1% Penicillin-Streptomycin). Pre-adipocytes were maintained in this differentiation medium for 3 days and subsequently cultured in adipocyte medium. Cultures were re-fed every 2-3 days to allow 90% cells to reach fully differentiation before conducting chemical treatment. […] Cell viability was measured via trypan blue exclusion. Adipocyte and muscle 18s, TNFα, IL-6, IL-8, IL-15 and adiponectin were quantitatively measured using a smart cycler real-time PCR system (Cepheid, Sunnyvale, Calif.) with a TaqMan 1000 Core Reagent Kit (Applied Biosystems, Branchburg, N.J.). […] Reactions of quantitative RT-PCR for standards and unknown samples were also performed according to the instructions of Smart Cycler System (Cepheid, Sunnyvale, Calif.) and TaqMan Real Time PCR Core Kit (Applied Biosystems, Branchburg, N.J.). The mRNA quantitation for each sample was further normalized using the corresponding 18s quantitation.

The next assay relates to IL-15. Briefly: IL-15 expression in 3T3-L1 adipocytes. As to conditions: 1 μmol/L α±tocopherol added to 100 nmol/L H2O2, 48 h; P=0.043. Here is the method: as §2

Turning to `Cc1c(C)c2c(c(C)c1O)CC[C@@](C)(CCC[C@H](C)CCC[C@H](C)CCCC(C)C)O2` [α-tocopherol], in the assay on 3T3-L1 adipocytes [1] (α-tocopherol 1 μmol/L added, all groups), the “effect on DNA synthesis” value is listed as “inhibited”. For the same compound, in the assay on 3T3-L1 adipocytes [1] (α-tocopherol 1 μmol/L or nifedipine 10 μmol/L plus H2O2, 48 hours), the “effect on H2O2 induced DNA synthesis” value is “completely blocked”. For the same compound, the “effect on ROS production” value in the assay on 3T3-L1 adipocytes [2] was “inhibited”. Further, the “effect on H2O2 induced increase in [Ca2+]i” value in the assay with 3T3-L1 adipocytes [3] (α-tocopherol 1 μmol/L plus H2O2, 4 hours) is recorded as “reversed”. The “effect on glucose induced increase in [Ca2+]i” value in the assay with 3T3-L1 adipocytes [3] (α-tocopherol 1 μmol/L plus glucose 30 mmol/L, 4 hours) is on record as “partially blocked”. The “effect on adiponectin production” value in the assay on adiponectin is given as “increased”. Moreover, in the assay with IL-15, the “increase in IL-15 as compared to H2O2-treated cells” value came to 2.2 fold.

(Values after patent publication US20110038948A1, “Methods of Reducing the Production of Reactive Oxygen Species and Methods of Screening or Identifying Compounds and Compositions that Reduce the Production of Reactive Oxygen Species” (UNIVERSITY OF TENNESSEE RESEARCH FOUNDATION, priority 2005, published 2011).)
